The source made the active and inactive calls. How the calls were made is not given here.
Each compound was assayed against Induced myeloid leukemia cell differentiation protein Mcl-1 (Homo sapiens) (UniProt Q07820) (assay: Mcl-1/Bim interaction regulators – biochemical, bead-based flow cytometry, multiplexed, human, dose response (AID 1329)). Conditions: Bim peptide-Mcl-1 binding, MCF.
Chain of Induced myeloid leukemia cell differentiation protein Mcl-1 (Homo sapiens) (Q07820 whole entry, looked up): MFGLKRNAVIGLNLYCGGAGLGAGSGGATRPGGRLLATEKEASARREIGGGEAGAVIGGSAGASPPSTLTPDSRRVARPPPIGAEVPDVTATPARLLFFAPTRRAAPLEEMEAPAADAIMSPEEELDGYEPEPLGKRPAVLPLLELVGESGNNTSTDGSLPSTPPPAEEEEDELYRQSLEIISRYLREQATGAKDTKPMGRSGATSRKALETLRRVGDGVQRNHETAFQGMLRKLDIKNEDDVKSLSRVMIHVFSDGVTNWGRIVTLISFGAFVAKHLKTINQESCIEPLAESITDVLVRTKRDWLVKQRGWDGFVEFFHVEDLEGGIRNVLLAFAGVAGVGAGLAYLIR

Row | SMILES | percent span
1 | O=C(Nc1ccncc1)c1cc2ccccc2o1 | inactive
2 | c1ccc(-c2nc(N3CCCCCC3)c3ccccc3n2)nc1 | inactive
3 | CCN(CC)C(=O)COC(=O)c1cc(-c2ccco2)nc2ccccc12 | inactive
4 | O=C(Cc1ccccc1)OCCNC(=O)c1cccnc1 | inactive
5 | CCOc1ccc(-n2cc(-c3ccc(OC)c(OC)c3)[nH]c2=S)cc1 | inactive
6 | O=C1N/C(=C/c2cccn2-c2ccccc2)C(=O)N1Cc1ccc(F)cc1 | inactive
7 | COc1ccc(C2C(C#N)=C(C)NC3=C2S(=O)(=O)c2ccccc23)cc1 (stereo not given) | inactive
8 | CN1CCS/C1=C/C=C1/SC(=S)N(Cc2ccccc2)C1=O | inactive
9 | Cc1cc(NC(=O)CCSc2ccccc2)ccc1Br | inactive
10 | Nc1ccc(Nc2nc(-c3ccncc3)cs2)cc1 | inactive
11 | O=C(Nc1ccccc1)Nc1ccc2ncoc2c1 | inactive
12 | CCc1ccc(/C=C/C(=O)c2cc(Br)ccc(=O)c2O)cc1 | inactive
13 | O=C(NC1=C(Nc2ccc(Cl)cc2)C(=O)c2ccccc2C1=O)c1ccccc1 | inactive
14 | O=C(NCCCO)Nc1ccc2nc(-c3ccco3)c(-c3ccco3)nc2c1 | inactive
15 | CCc1cccc(CC)c1-n1c(-c2cccnc2)n[nH]c1=S | inactive
16 | Cc1ccc(S(=O)(=O)N2CCCCC2)cc1NC(=O)COC(=O)c1ccccc1F | inactive
17 | COC(=O)c1ccc(C)c(NC(=O)CCNC(=O)c2ccc([N+](=O)[O-])cc2)c1 | inactive
18 | CCc1ccc(NC(=O)Cc2ccc(OC)cc2)cc1 | inactive
19 | COc1ccc(NC(=O)c2c(F)cccc2F)cc1S(=O)(=O)Nc1ccc(Br)cc1 | inactive
20 | Cc1cc(C)nc(/N=C(\N)N2CCc3ccccc32)n1 | inactive
21 | COc1cc(/C=C2/NC(=O)N(Cc3ccccc3F)C2=O)ccc1O | inactive
22 | Cc1ccc(C(=O)N/N=C2/NC(=O)CC(C(=O)Nc3ccccc3)S2)cc1 (stereo not given) | inactive
23 | C=CCn1c(SCC(=O)Nc2ccc3c(c2)OCO3)nnc1-c1cc(Br)ccc1O | inactive
24 | CCCC1(C(=O)OCC)NC(c2cc(OC)c(OC)c(OC)c2)C2C(=O)N(CC)C(=O)C21 (stereo not given) | inactive
25 | O=C(c1cccc(Br)c1)N1CCN(c2cnn(-c3ccccc3)c(=O)c2Cl)CC1 | inactive
26 | O=S1(=O)N=C(N(CCO)/N=C/c2ccncc2)c2ccccc21 | inactive
27 | Cc1ccc(NC(=S)N2CCn3cccc3C2c2cccnc2)cc1 (stereo not given) | inactive

Row | SMILES | percent span
28 | O=C(N/N=C/c1cccc([N+](=O)[O-])c1)c1cccs1 | inactive
29 | Oc1ccc(C=NCC2COc3ccccc3O2)cc1 (stereo not given) | inactive
30 | Cc1cccc(/C=N/N(CCO)C2=NS(=O)(=O)c3ccccc32)c1 | inactive
31 | c1ccc(-c2nnc(OCCN3CCOCC3)c3ccccc23)cc1 | inactive
32 | OCCC1CN(Cc2ccc3ncccc3c2)CCN1Cc1ccccc1 (stereo not given) | inactive
33 | COc1ccc(NC(=O)/C(C#N)=C/c2c(C)nn(-c3ccc(F)cc3)c2Cl)cc1Cl | inactive
34 | CCN1CCN(c2cc(C)c3cc(NC(=S)N4CC(C)CC(C)C4)ccc3n2)CC1 (stereo not given) | inactive
35 | COc1ccc(C(=O)Nc2ccc(NC(=O)c3cccs3)cc2)cc1Cl | inactive
36 | O=C(CCc1ccccc1)N1CCN(c2ccccn2)CC1 | inactive
37 | CN1C2C=C3C(C#N)=C(N)C(C#N)(C#N)[C@@H](c4ccsc4)[C@@H]3C1CC2 (stereo not given in full) | inactive
38 | Cc1ccc(N=c2ssnc2Cl)cc1 | inactive
39 | Cc1ccc(NC(=O)CC2S/C(=N/N=C/c3c[nH]c4ccccc34)NC2=O)cc1 (stereo not given) | inactive
40 | O=C(COCC(=O)NCc1ccccc1)NCc1ccccc1 | inactive
41 | Cc1ccc(S(=O)(=O)N(C)CC(=O)N2CCc3ccccc32)cc1 | inactive
42 | O=C(OCc1cnc(Cl)s1)c1cccc(Cl)c1Cl | inactive
43 | Cc1nnc(Sc2cc(NCCCO)c([N+](=O)[O-])c3nonc23)s1 | inactive
44 | COc1ccc(N=C2NC(=O)/C(=C\C=C\c3ccco3)S2)cc1 | inactive
45 | CN1C(=O)/C(=C/c2ccc(-c3ccccc3[N+](=O)[O-])o2)SC1=Nc1ccc(Cl)c(C(=O)O)c1 | inactive
46 | CCN=c1scc(C)n1/N=C/c1ccc(O)c(O)c1O | inactive
47 | O=C(OCc1nc2ccccc2[nH]1)C12CC3CC(CC(C3)C1)C2 | inactive
48 | C=CS(=O)c1sc(Cl)c(N2CCOCC2)c1[N+](=O)[O-] (stereo not given) | inactive
49 | Clc1nssc1=Nc1ccc(Br)cc1 | inactive
50 | O=c1c2c(n3nnnc3n1Cc1ccccc1)-c1ccccc1CC21CCCC1 | inactive
51 | O=C(NCc1ccco1)C1CC2CCC1C2 (stereo not given) | inactive
52 | COc1ccc(CN(CC(=O)NC2CCCC2)C(=O)CCC(=O)Nc2cc(C)on2)cc1 | inactive
53 | O=C(Cn1cncc1-c1ccc([N+](=O)[O-])cc1)Nc1ccccc1F | inactive
54 | COc1ccccc1N(C)S(=O)(=O)c1ccc(C(=O)OCC(N)=O)cc1 | inactive

Row | SMILES | percent span
55 | CCN(CC)c1ccc(NC(=O)c2ccccc2Br)cc1S(=O)(=O)Nc1ccccc1OC | inactive
56 | CCOCCOc1nc2c(c(=O)n(C)c(=O)n2C)n1CCc1ccccc1 | inactive
57 | Cc1ccccc1/C=N/Nc1ccnc2cc(Cl)ccc12 | inactive
58 | Cc1ccc(-c2cc(-c3ccc(Cl)cc3)c(C#N)c(N)n2)o1 | inactive
59 | COc1cc2[nH]c(=S)nc(NCCCOC(C)C)c2cc1OC | inactive
60 | Nc1cccc(-c2cn3cccnc3n2)c1 | inactive
61 | COc1cc(OC)c([N+](=O)[O-])cc1/C=N/NC(=O)c1ccncc1 | inactive
62 | CCOc1ccc(C(=O)Nc2nnc(NC(=S)Nc3ccccc3)s2)cc1 | inactive
63 | COc1ccc(N2C(=O)C(Cl)=C(Nc3c(C)n(C)n(-c4ccccc4)c3=O)C2=O)cc1 | inactive
64 | O=C1CSc2ccc(C(=O)Nc3cccc(S(=O)(=O)Nc4ccc(Br)cc4)c3)cc2N1 | inactive
65 | CCOC(=O)c1[nH]cnc1C(=O)NC(C)C | inactive
66 | COc1cc(NC(=S)NCCCO)c(OC)cc1Cl | inactive
67 | COc1cccc(N2CC(C(=O)Nc3nnc(SCC(=O)c4ccccc4)s3)CC2=O)c1 (stereo not given) | inactive
68 | COc1ccc(OC)c(Nc2ccc(C(=O)O)cc2[N+](=O)[O-])c1 | inactive
69 | CCOc1ccccc1NC(=O)CSc1ccc2nnc(-c3cccnc3)n2n1 | inactive
70 | Cc1csc(Nc2ccccc2C(F)(F)F)n1 | inactive
71 | O=C(/C=C/c1ccc(-c2ccccc2[N+](=O)[O-])o1)c1ccc(F)cc1 | inactive
72 | COC(=O)c1[nH]c2ccccc2c1NC(=O)c1ccccc1[N+](=O)[O-] | inactive
73 | CC(C)NS(=O)(=O)c1ccc(OCC(=O)Nc2ccc(F)cc2)cc1 | inactive
74 | O=C(O)CC/C(=C\c1cc([N+](=O)[O-])ccc1Cl)c1nc2ccccc2s1 | inactive
75 | COC(=O)c1ccc(-n2nnnc2SCC(=O)Nc2cc(OC)ccc2OC)cc1 | inactive
76 | Cc1cc(-c2cc(-c3ccc(Cl)cc3)nc(N)c2C#N)co1 | inactive
77 | O=C(O)/C=C/C(=O)NNC(=O)c1ccc(Br)cc1 | inactive
78 | OC(COc1ccc2cc(Br)ccc2c1)CN1CCOCC1 (stereo not given) | inactive
79 | CCOC(=O)c1c(NC(=O)c2ccccc2N(C)S(=O)(=O)c2ccccc2)sc2c1CCCC2 | inactive
80 | Oc1ccc(NCc2ccccc2OCc2ccccc2)cc1 | inactive
81 | CCN(CC)c1ccc(-c2nn3c(-c4cccnc4)nnc3s2)cc1 | inactive

Row | SMILES | percent span
82 | CCCn1c(N2CCN(C)CC2)nc2c1c(=O)[nH]c(=O)n2C | inactive
83 | Cc1cccc(-n2c(O)c(/C=N/N3CCOCC3)c(=O)[nH]c2=S)c1 | inactive
84 | CCOc1ccc(C2=Nn3c(nnc3-c3ccco3)SC2)cc1 | inactive
85 | COc1ccc(/C=C(/C(=O)c2cccs2)N2C=CC=CC2=C(C#N)C#N)cc1 | inactive
86 | C=CCN1C(=O)/C(=C/c2ccsc2)SC1=S | inactive
87 | C/C(=N/NC(=O)c1cc(O)c(O)c(O)c1)c1ccc([N+](=O)[O-])cc1 | inactive
88 | Fc1cccc(Nc2nc(-c3ccncc3)nc3ccccc23)c1 | inactive
89 | CC(=O)NC(=O)Nc1sc(=S)n(C)c1C | inactive
90 | CCCCNC(=O)c1ccc2nc(-c3ccco3)c(-c3ccco3)nc2c1 | inactive
91 | CNc1ccc(Br)cc(C(=O)/C=C/c2cccc(OC)c2OC)c1=O | inactive
92 | COc1cccc(/C=C2/SC(=O)N(C)C2=O)c1OCc1ccc(C(=O)O)cc1 | inactive
93 | Nc1ccc(C2=Nc3cccc4cccc(c34)N2)cc1 | inactive
94 | COc1ccc2nc(C)cc(SCC(=O)N/N=C/c3ccc(O)c(O)c3)c2c1 | inactive
95 | Cc1ccc(NC(=O)C/C(N)=N/OC(=O)c2ccccc2)cc1 | inactive
96 | CCOc1ccccc1NC(=O)CSc1nnc2ccc(-c3cccnc3)nn12 | inactive
97 | CCCCCCn1nc(C(=O)Nc2nc3c(s2)CCCC3)c2ccccc2c1=O | inactive
98 | CC(C)=C1C(=O)NN(c2ccc(C)c(Cl)c2)C1=O | inactive
99 | Nc1c(C(=O)NCc2ccco2)sc2nc3c(cc12)C(=O)CCC3 | inactive
100 | COCc1cc(CN2CCCC(CNC(=O)c3ccc(F)cc3)C2)ccc1OC (stereo not given) | inactive
101 | Cn1cccc1CC(=O)N/N=C\c1ccccc1 | inactive
102 | COC(=O)c1ccc(/C=N/NC(=O)CC(=O)NCc2cccnc2)cc1 | inactive
103 | COc1ccccc1OCc1ccc(C(=O)Nc2ccccc2F)cc1 | inactive
104 | Cc1ccc(Nc2nc(-c3ccccc3)c(CC(=O)O)s2)cc1 | inactive
105 | COC(=O)c1c(NC(=O)COc2ncnc3ccccc23)sc(C)c1C | inactive

Reference: PubChem BioAssay AID1329 (NMMLSC, 2008)
